Assay results as given in patent publication US12319664B2, “Herbicidally active 3-phenylisoxazoline-5-carboxamides of cyclopentenylcarboxylic acid derivatives” (Bayer Aktiengesellschaft, priority 2018, dated 2025).

Experiments:
[1] = test system: LOLRI; assay: Post-emergence herbicidal action against LOLRI; format: in vivo, Lolium rigidum; conditions: application rate 80 g/ha, rated visually after about 3 weeks
Procedure, shortened: (§1)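 Greenhouse pot test in sandy loam; plants sprayed at the one-leaf stage, 2 to 3 weeks after sowing, with WP or EC formulations as aqueous suspension/emulsion plus 0.5% additive at 600 l/ha water. Visual rating after about 3 weeks against untreated controls (100% = plants died, 0% = like control).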

[2] = test system: PHBPU; assay: Post-emergence herbicidal action against PHBPU; format: in vivo, Pharbitis purpurea; conditions: application rate 80 g/ha, rated visually about 3 weeks after treatment
Procedure, shortened: as §1

[3] = test system: ABUTH; assay: Post-emergence herbicidal action against ABUTH; format: in vivo, Abutilon theophrasti; conditions: application rate 80 g/ha, rated visually about 3 weeks after treatment
Procedure, shortened: as §1

[4] = test system: MATIN; assay: Post-emergence herbicidal action against MATIN; format: in vivo, Matricaria inodora; conditions: application rate 80 g/ha, rated visually about 3 weeks after treatment
Procedure, shortened: as §1

[5] = test system: STEME; assay: Post-emergence herbicidal action against STEME; format: in vivo, Stellaria media; conditions: application rate 80 g/ha, rated visually about 3 weeks after treatment
Procedure, shortened: as §1

[6] = test system: POLCO; assay: Post-emergence herbicidal action against POLCO; format: in vivo, Polygonum convolvulus; conditions: application rate 80 g/ha, rated visually about 3 weeks after treatment
Procedure, shortened: as §1

[7] = test system: HORMU; assay: Post-emergence herbicidal action against HORMU; format: in vivo, Hordeum murinum; conditions: application rate 80 g/ha
Procedure, shortened: as §1

[8] = test system: ALOMY; assay: Post-emergence herbicidal action against ALOMY; format: in vivo, Alopecurus myosuroides; conditions: application rate 80 g/ha, rated visually after about 3 weeks
Procedure, shortened: as §1

[9] = test system: ECHCG; assay: Post-emergence herbicidal action against ECHCG; format: in vivo, Echinochloa crus-galli; conditions: application rate 80 g/ha, rated visually after about 3 weeks
Procedure, shortened: as §1

[10] = test system: AVEFA; assay: Post-emergence herbicidal action against AVEFA; format: in vivo, Avena fatua; conditions: application rate 80 g/ha, rated visually after about 3 weeks
Procedure, shortened: as §1

[11] = test system: VERPE; assay: Post-emergence herbicidal action against VERPE; format: in vivo, Veronica persica; conditions: application rate 80 g/ha
Procedure, shortened: as §1

[12] = test system: SETVI; assay: Post-emergence herbicidal action against SETVI; format: in vivo, Setaria viridis; conditions: application rate 80 g/ha, rated visually after about 3 weeks
Procedure, shortened: as §1

[13] = test system: VIOTR; assay: Post-emergence herbicidal action against VIOTR; format: in vivo, Viola tricolor; conditions: application rate 80 g/ha, rated visually about 3 weeks after treatment
Procedure, shortened: as §1

[14] = test system: AMARE; assay: Post-emergence herbicidal action against AMARE; format: in vivo, Amaranthus retroflexus; conditions: application rate 80 g/ha, rated visually about 3 weeks after treatment
Procedure, shortened: as §1

COC(=O)C(NC(=O)C1C=CC(NC(=O)C2(C)CC(c3cc(F)cc(F)c3)=NO2)C1)C(C)C (mixture of isomers) [II-11]
90%: Herbicidal action against [%] LOLRI [1] | Herbicidal action against [%] PHBPU [2] | Herbicidal action against [%] ABUTH [3] | Herbicidal action against [%] MATIN [4] | Herbicidal action against [%] STEME [5] | Herbicidal action against [%] POLCO [6] | Herbicidal action against [%] HORMU [7] | Herbicidal action against [%] ALOMY [8] | Herbicidal action against [%] ECHCG [9] | Herbicidal action against [%] AVEFA [10] | Herbicidal action against [%] VERPE [11] | Herbicidal action against [%] SETVI [12] | Herbicidal action against [%] VIOTR [13] | Herbicidal action against [%] AMARE [14]

COC(=O)[C@@H]1C=C[C@H](NC(=O)C2(C(F)(F)F)CC(c3cc(F)cc(C#N)c3)=NO2)C1 (single isomer, unassigned) [Example I-098]
100%: Herbicidal action against [%] ALOMY [8] | Herbicidal action against [%] AVEFA [10]
90%: Herbicidal action against [%] LOLRI [1] | Herbicidal action against [%] STEME [5] | Herbicidal action against [%] HORMU [7] | Herbicidal action against [%] ECHCG [9]
80%: Herbicidal action against [%] PHBPU [2] | Herbicidal action against [%] ABUTH [3] | Herbicidal action against [%] MATIN [4] | Herbicidal action against [%] POLCO [6] | Herbicidal action against [%] VERPE [11] | Herbicidal action against [%] SETVI [12] | Herbicidal action against [%] VIOTR [13] | Herbicidal action against [%] AMARE [14]

COC(=O)[C@H]1C=C[C@H](NC(=O)[C@@]2(C(F)(F)F)CC(c3cc(F)cc(F)c3)=NO2)C1 [Example I-062]
80%: Herbicidal action against [%] PHBPU [2] | Herbicidal action against [%] ABUTH [3] | Herbicidal action against [%] MATIN [4] | Herbicidal action against [%] STEME [5] | Herbicidal action against [%] POLCO [6] | Herbicidal action against [%] SETVI [12] | Herbicidal action against [%] VIOTR [13] | Herbicidal action against [%] AMARE [14]
90%: Herbicidal action against [%] LOLRI [1] | Herbicidal action against [%] ECHCG [9] | Herbicidal action against [%] VERPE [11]
100%: Herbicidal action against [%] HORMU [7] | Herbicidal action against [%] ALOMY [8] | Herbicidal action against [%] AVEFA [10]

COCCOC(=O)[C@@H]1C=C[C@H](NC(=O)[C@@]2(C(F)(F)F)CC(c3cc(F)cc(F)c3)=NO2)C1 [Example I-076]
100%: Herbicidal action against [%] LOLRI [1] | Herbicidal action against [%] ALOMY [8] | Herbicidal action against [%] AVEFA [10]
90%: Herbicidal action against [%] STEME [5] | Herbicidal action against [%] POLCO [6] | Herbicidal action against [%] ECHCG [9] | Herbicidal action against [%] SETVI [12] | Herbicidal action against [%] AMARE [14]
80%: Herbicidal action against [%] PHBPU [2] | Herbicidal action against [%] ABUTH [3] | Herbicidal action against [%] MATIN [4] | Herbicidal action against [%] HORMU [7] | Herbicidal action against [%] VERPE [11] | Herbicidal action against [%] VIOTR [13]

COCCOC(=O)[C@@H]1C=C[C@H](NC(=O)[C@@]2(C)CC(c3cc(F)cc(F)c3)=NO2)C1 [Example I-092]
90%: Herbicidal action against [%] LOLRI [1] | Herbicidal action against [%] ABUTH [3] | Herbicidal action against [%] MATIN [4] | Herbicidal action against [%] STEME [5] | Herbicidal action against [%] ALOMY [8] | Herbicidal action against [%] AVEFA [10] | Herbicidal action against [%] VERPE [11] | Herbicidal action against [%] AMARE [14]
80%: Herbicidal action against [%] PHBPU [2] | Herbicidal action against [%] POLCO [6] | Herbicidal action against [%] ECHCG [9] | Herbicidal action against [%] SETVI [12] | Herbicidal action against [%] VIOTR [13]
100%: Herbicidal action against [%] HORMU [7]

CCOCCOC(=O)[C@@H]1C=C[C@H](NC(=O)[C@@]2(C)CC(c3cc(F)cc(F)c3)=NO2)C1 [Example I-093]
90%: Herbicidal action against [%] MATIN [4] | Herbicidal action against [%] POLCO [6]
80%: Herbicidal action against [%] PHBPU [2] | Herbicidal action against [%] ABUTH [3] | Herbicidal action against [%] STEME [5] | Herbicidal action against [%] VERPE [11] | Herbicidal action against [%] SETVI [12] | Herbicidal action against [%] VIOTR [13] | Herbicidal action against [%] AMARE [14]
100%: Herbicidal action against [%] LOLRI [1] | Herbicidal action against [%] HORMU [7] | Herbicidal action against [%] ALOMY [8] | Herbicidal action against [%] ECHCG [9] | Herbicidal action against [%] AVEFA [10]
